According to US8975417B2, “Pyrazolopyrrolidine derivatives and their use in the treatment of disease” (Novartis AG, priority 2013, dated 2015):

Tested on: MV-4-11 cells
Experiment: Cell growth inhibition assay (CellTiter-Glo), MV-4-11
Type: cell-based
Settings: Homo sapiens, MV4-11, read-out: MV-4-11 TGI
Summary of the method: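 Dose-response over 3-fold dilutions from 10 μM; 0.1% DMSO control. Endpoint: CellTiter-Glo ATP signal, background-subtracted and day 0-corrected.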

Structure (SMILES): COc1ncccc1-n1nc(C)c2c1C(=O)N(c1cc(C)c3nnc(C)n3c1)C2c1ccc(Cl)cc1 (stereo not drawn) [Example 101, 4-(4-chlorophenyl)-5-(3,8-dimethyl-[1,2,4]triazolo[4,3-a]pyridin-6-yl)-1-(2-methoxypyridin-3-yl)-3-methyl-4,5-dihydropyrrolo[3,4-c]pyrazol-6(1H)-one]
- IC (total growth inhibition): 0.0447 µM

Structure (SMILES): Cc1nn(C2CC2)c2c1C(c1ccc(Cl)cc1)N(c1ccc3nnn(C)c3n1)C2=O (stereo not drawn) [Example 102, 4-(4-chlorophenyl)-1-cyclopropyl-3-methyl-5-(3-methyl-3H-[1,2,3]triazolo[4,5-b]-pyridin-5-yl)-4,5-dihydropyrrolo[3,4-c]pyrazol-6(1H)-one]
- IC (total growth inhibition): 0.141 µM

Structure (SMILES): Cc1nn(C(C)C)c2c1[C@H](c1ccc(Cl)cc1)N(c1cc(C)c(=O)n(C)c1)C2=O [Example 103, (S)-4-(4-chlorophenyl)-5-(1,5-dimethyl-6-oxo-1,6-dihydropyridin-3-yl)-1-isopropyl-3-methyl-4,5-dihydropyrrolo[3,4-c]pyrazol-6(1H)-one]
- IC (total growth inhibition): 6.54 µM

Structure (SMILES): Cc1nn(C(C)C)c2c1[C@@H](c1ccc(Cl)cc1)N(c1cc(C)c(=O)n(C)c1)C2=O [Example 104, (R)-4-(4-chlorophenyl)-5-(1,5-dimethyl-6-oxo-1,6-dihydropyridin-3-yl)-1-isopropyl-3-methyl-4,5-dihydropyrrolo[3,4-c]pyrazol-6(1H)-one]
- IC (total growth inhibition): 0.0191 µM

Structure (SMILES): CCc1nn(C)c2c1C(c1ccc(Cl)cc1)N(c1cc(OC)c3nnc(C)n3c1)C2=O (stereo not drawn) [Example 105, 4-(4-chlorophenol)-3-ethyl-5-(8-methoxy-3-methyl-[1,2,4]triazolo[4,3-a]pyridin-6-yl)-1-methyl-4,5-dihydropyrrolo[3,4-c]pyrazol-6(1H)-one]
- IC (total growth inhibition): 0.164 µM

Structure (SMILES): CCc1nn(C2CC2)c2c1[C@H](c1ccc(Cl)cc1)N(c1cc(C)c3nnc(C)n3c1)C2=O [Example 106, (S)-4-(4-chlorophenyl)-1-cyclopropyl-5-(3,8-dimethyl-[1,2,4]triazolo[4,3-a]pyridin-6-yl)-3-ethyl-4,5-dihydropyrrolo[3,4-c]pyrazol-6(1H)-one]
- IC (total growth inhibition): 1.48 µM

Structure (SMILES): CCc1nn(C2CC2)c2c1[C@@H](c1ccc(Cl)cc1)N(c1cc(C)c3nnc(C)n3c1)C2=O [Example 107, (R)-4-(4-chlorophenyl)-1-cyclopropyl-5-(3,8-dimethyl-[1,2,4]triazolo[4,3-a]pyridin-6-yl)-3-ethyl-4,5-dihydropyrrolo[3,4-c]pyrazol-6(1H)-one]
- IC (total growth inhibition): 0.0113 µM

Structure (SMILES): CCc1nn(CCOCC(F)(F)F)c2c1C(c1ccc(Cl)cc1)N(c1cc(OC)c3nnc(C)n3c1)C2=O (stereo not drawn) [Example 108, 4-(4-chlorophenyl)-3-ethyl-5-(8-methoxy-3-methyl-[1,2,4]triazolo[4,3-a]pyridin-6-yl)-1-(2-(2,2,2-trifluoroethoxy)ethyl)-4,5-dihydropyrrolo[3,4-c]pyrazol-6(1H)-one]
- IC (total growth inhibition): 0.445 µM

Structure (SMILES): COc1ncccc1-n1nc(C)c2c1C(=O)N(c1cc(C)c3nnn(C)c3n1)C2c1ccc(Cl)cc1 (stereo not drawn) [Example 109, 4-(4-chlorophenyl)-5-(3,7-dimethyl-3H-[1,2,3]triazolo[4,5-b]pyridin-5-yl)-1-(2-methoxypyridin-3-yl)-3-methyl-4,5-dihydropyrrolo[3,4-c]pyrazol-6(1H)-one]
- IC (total growth inhibition): 0.0381 µM

Structure (SMILES): Cc1nn(C2CC2)c2c1C(c1ccc(Cl)cc1)N(c1cc(C)c3nnn(C)c3n1)C2=O (stereo not drawn) [Example 110, 4-(4-chlorophenyl)-1-cyclopropyl-5-(3,7-dimethyl-3H-[1,2,3]triazolo[4,5-b]pyridin-5-yl)-3-methyl-4,5-dihydropyrrolo[3,4-c]pyrazol-6(1H)-one]
- IC (total growth inhibition): 0.0102 µM

Structure (SMILES): COc1ncccc1-n1nc(C)c2c1C(=O)N(c1cc(C)c3nnc(C)n3n1)C2c1ccc(Cl)cc1 (stereo not drawn) [Example 111, 4-(4-chlorophenyl)-5-(3,8-dimethyl-[1,2,4]triazolo[4,3-b]pyridazin-6-yl)-1-(2-methoxypyridin-3-yl)-3-methyl-4,5-dihydropyrrolo[3,4-c]pyrazol-6(1H)-one]
- IC (total growth inhibition): 0.0306 µM

Structure (SMILES): Cc1nn(C2CC2)c2c1C(c1ccc(Cl)cc1)N(c1cc(N(C)C(=O)OC(C)(C)C)c3nnc(C)n3n1)C2=O (stereo not drawn) [Example 112, tert-butyl (6-(4-(4-chlorophenyl)-1-cyclopropyl-3-methyl-6-oxopyrrolo[3,4-c]pyrazol-5(1H,4H,6H)-yl)-3-methyl-[1,2,4]triazolo[4,3-b]pyridazin-8-yl)(methyl)carbamate]
- IC (total growth inhibition): 1.21 µM

Structure (SMILES): Cc1nn(-c2ccnn2C)c2c1C(c1ccc(Cl)cc1)N(c1cc(C)c3nnc(C)n3n1)C2=O (stereo not drawn) [Example 114, 4-(4-chlorophenyl)-5-(3,8-dimethyl-[1,2,4]triazolo[4,3-b]pyridazin-6-yl)-3-methyl-1-(1-methyl-1H-pyrazol-5-yl)-4,5-dihydropyrrolo[3,4-c]pyrazol-6(1H)-one]
- IC (total growth inhibition): 0.0443 µM

Structure (SMILES): CCn1nc2c(c1C)C(c1ccc(Cl)cc1)N(c1cc(C)c3nnc(C)n3c1)C2=O (stereo not drawn) [Example 115, 4-(4-chlorophenyl)-5-(3,8-dimethyl-[1,2,4]triazolo[4,3-a]pyridin-6-yl)-2-ethyl-3-methyl-4,5-dihydropyrrolo[3,4-c]pyrazol-6(2H)-one]
- IC (total growth inhibition): 0.0482 µM

Structure (SMILES): CCn1nc(C)c2c1C(=O)N(c1cc(C)c3nnc(C)n3c1)C2c1ccc(Cl)cc1 (stereo not drawn) [Example 116, 4-(4-chlorophenyl)-5-(3,8-dimethyl-[1,2,4]triazolo[4,3-a]pyridin-6-yl)-1-ethyl-3-methyl-4,5-dihydropyrrolo[3,4-c]pyrazol-6(1H)-one]
- IC (total growth inhibition): 0.0301 µM

Structure (SMILES): Cc1cc(N2C(=O)c3c(c(C4CC4)nn3-c3ccnn3C)C2c2ccc(Cl)cc2)cn2c(C)nnc12 (stereo not drawn) [Example 117, 4-(4-chlorophenyl)-3-cyclopropyl-5-(3,8-dimethyl-[1,2,4]triazolo[4,3-a]pyridin-6-yl)-1-(1-methyl-1H-pyrazol-5-yl)-4,5-dihydropyrrolo[3,4-c]pyrazol-6(1H)-one]
- IC (total growth inhibition): 0.0391 µM

Structure (SMILES): Cc1nn(-c2ccnn2C)c2c1[C@@H](c1ccc(Cl)cc1)N(c1cc(C)c(=O)n(C)c1)C2=O [Example 120, (R)-4-(4-chlorophenyl)-5-(1,5-dimethyl-6-oxo-1,6-dihydropyridin-3-yl)-3-methyl-1-(1-methyl-1H-pyrazol-5-yl)-4,5-dihydropyrrolo[3,4-c]pyrazol-6(1H)-one]
- IC (total growth inhibition): 0.106 µM

Structure (SMILES): Cc1nn(-c2ccnn2C)c2c1[C@H](c1ccc(Cl)cc1)N(c1cc(C)c(=O)n(C)c1)C2=O [Example 121, (S)-4-(4-chlorophenyl)-5-(1,5-dimethyl-6-oxo-1,6-dihydropyridin-3-yl)-3-methyl-1-(1-methyl-1H-pyrazol-5-yl)-4,5-dihydropyrrolo[3,4-c]pyrazol-6(1H)-one]
- IC (total growth inhibition): 1.23 µM

Structure (SMILES): Cc1nn(C2CC2)c2c1[C@@H](c1ccc(Cl)cc1)N(c1cc(C)c3nnc(C)n3n1)C2=O [Example 122, (R)-4-(4-chlorophenyl)-1-cyclopropyl-5-(3,8-dimethyl-[1,2,4]triazolo[4,3-b]-pyridazin-6-yl)-3-methyl-4,5-dihydropyrrolo[3,4-c]pyrazol-6(1H)-one]
- IC (total growth inhibition): 0.00842 µM

Structure (SMILES): Cc1nn(-c2ccnn2C)c2c1[C@H](c1ccc(Cl)cc1)N(c1cc(C)c3nnc(C)n3c1)C2=O [Example 124, (S)-4-(4-chlorophenyl)-5-(3,8-dimethyl-[1,2,4]triazolo[4,3-a]pyridin-6-yl)-3-methyl-1-(1-methyl-1H-pyrazol-5-yl)-4,5-dihydropyrrolo[3,4-c]pyrazol-6(1H)-one]
- IC (total growth inhibition): 0.73 µM

Structure (SMILES): Cc1nn(-c2ccnn2C)c2c1[C@@H](c1ccc(Cl)cc1)N(c1cc(C)c3nnc(C)n3c1)C2=O [Example 125, (R)-4-(4-chlorophenyl)-5-(3,8-dimethyl-[1,2,4]triazolo[4,3-a]pyridin-6-yl)-3-methyl-1-(1-methyl-1H-pyrazol-5-yl)-4,5-dihydropyrrolo[3,4-c]pyrazol-6(1H)-one]
- IC (total growth inhibition): 0.0399 µM

Structure (SMILES): CC(=O)Nc1cc(N2C(=O)c3c(c(C)nn3C3CC3)C2c2ccc(Cl)cc2)nn2c(C)nnc12 (stereo not drawn) [Example 126, N-(6-(4-(4-chlorophenyl)-1-cyclopropyl-3-methyl-6-oxopyrrolo[3,4-c]pyrazol-5-(1H,4H,6H)-yl)-3-methyl-[1,2,4]triazolo[4,3-b]pyridazin-8-yl)acetamide]
- IC (total growth inhibition): 0.682 µM

Structure (SMILES): COc1ncccc1-n1nc(C)c2c1C(=O)N(c1cc(C)c(=O)n(C)c1)[C@H]2c1ccc(Cl)cc1 [Example 127, (S)-4-(4-chlorophenyl)-5-(1,5-dimethyl-6-oxo-1,6-dihydropyridin-3-yl)-1-(2-methoxypyridin-3-yl)-3-methyl-4,5-dihydropyrrolo[3,4-c]pyrazol-6(1H)-one]
- IC (total growth inhibition): 4.49 µM

Structure (SMILES): COc1ncccc1-n1nc(C)c2c1C(=O)N(c1cc(C)c(=O)n(C)c1)[C@@H]2c1ccc(Cl)cc1 [Example 128, (R)-4-(4-chlorophenyl)-5-(1,5-dimethyl-6-oxo-1,6-dihydropyridin-3-yl)-1-(2-methoxypyridin-3-yl)-3-methyl-4,5-dihydropyrrolo[3,4-c]pyrazol-6(1H)-one]
- IC (total growth inhibition): 0.0734 µM

Structure (SMILES): COCc1nn(C2CC2)c2c1C(c1ccc(Cl)cc1)N(c1cc(C)c3nnc(C)n3c1)C2=O (stereo not drawn) [Example 130, 4-(4-chlorophenyl)-1-cyclopropyl-5-(3,8-dimethyl-[1,2,4]triazolo[4,3-a]pyridin-6-yl)-3-(methoxymethyl)-4,5-dihydropyrrolo[3,4-c]pyrazol-6(1H)-one]
- IC (total growth inhibition): 0.0267 µM

Structure (SMILES): Cc1cc(N2C(=O)c3c(c(CO)nn3C3CC3)C2c2ccc(Cl)cc2)cn2c(C)nnc12 (stereo not drawn) [Example 131, 4-(4-chlorophenyl)-1-cyclopropyl-5-(3,8-dimethyl-[1,2,4]triazolo[4,3-a]pyridin-6-yl)-3-(hydroxymethyl)-4,5-dihydropyrrolo[3,4-c]pyrazol-6(1H)-one]
- IC (total growth inhibition): 0.0405 µM

Structure (SMILES): Cc1nn(C2COC2)c2c1C(c1ccc(Cl)cc1)N(c1cc(C)c(=O)n(C)c1)C2=O (stereo not drawn) [Example 135, 4-(4-chlorophenyl)-5-(1,5-dimethyl-6-oxo-1,6-dihydropyridin-3-yl)-3-methyl-1-(oxetan-3-yl)-4,5-dihydropyrrolo[3,4-c]pyrazol-6(1H)-one]
- IC (total growth inhibition): 0.126 µM
